Values quoted from earlier work, collected in patent US20230364244A1, “DENDRIMER COMPOSITIONS AND METHODS FOR DRUG DELIVERY TO INJURED KIDNEY” (Ashvattha Therapeutics, Inc., priority 2020, published 2023).

Target: T1, PPAR-δ (Homo sapiens, UniProt Q03181)
T1 construct: host or cells: human mesenchymal stem cells (endogenous receptor)
T1 sequence (Q03181 1-441): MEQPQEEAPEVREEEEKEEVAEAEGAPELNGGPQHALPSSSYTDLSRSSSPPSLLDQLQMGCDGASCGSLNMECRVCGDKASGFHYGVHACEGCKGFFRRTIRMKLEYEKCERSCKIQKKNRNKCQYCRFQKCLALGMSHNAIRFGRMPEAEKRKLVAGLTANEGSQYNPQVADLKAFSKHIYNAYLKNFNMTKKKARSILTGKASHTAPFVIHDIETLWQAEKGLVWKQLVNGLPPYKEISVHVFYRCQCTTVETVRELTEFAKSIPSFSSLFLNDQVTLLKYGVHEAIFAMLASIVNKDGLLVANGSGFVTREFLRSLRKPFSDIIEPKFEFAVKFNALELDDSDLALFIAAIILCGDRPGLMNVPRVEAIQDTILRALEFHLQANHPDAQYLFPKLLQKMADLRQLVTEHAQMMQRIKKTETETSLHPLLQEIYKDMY
Settings: co-culture; inhibition of PPAR-δ in MSCs

In the case of O=C(NCCS(=O)(=O)c1ccc(C(F)(F)F)cn1)c1ccc(Cl)cc1 [GSK3787], the “ability of human MSCs to limit proliferation of peripheral blood mononuclear cells” value is given as “enhanced their ability to limit proliferation of peripheral blood mononuclear cells”.
